#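 Dose response: 5 concentrations. Exposure: 48 h. Format: 96-well plates. Endpoint: linear interpolation; highest concentration if not reached. The concentration for full growth arrest is given as TGI.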
# What was measured:
# Assay in all cases: growth of human tumour cells (NCI), 48 h
# [1] = tested on: 786-0 renal
# [2] = tested on: A498 renal
# [3] = tested on: A549 NSCLC
# [4] = tested on: ACHN renal
# [5] = tested on: BT-549 breast
# [6] = tested on: CAKI-1 renal
# [7] = tested on: CCRF-CEM leukemia
# [8] = tested on: COLO 205 colon
# [9] = tested on: DU-145 prostate
# [10] = tested on: EKVX NSCLC
# [11] = tested on: HCT-116 colon
# [12] = tested on: HCT-15 colon
# [13] = tested on: HL-60(TB) leukemia
# [14] = tested on: HOP-62 NSCLC
# [15] = tested on: HOP-92 NSCLC
# [16] = tested on: HT29 colon
# [17] = tested on: IGROV1 ovarian
# [18] = tested on: K-562 leukemia
# [19] = tested on: KM12 colon
# [20] = tested on: LOX IMVI melanoma
# [21] = tested on: M14 melanoma
# [22] = tested on: MCF7 breast
# [23] = tested on: MDA-MB-231 breast
# [24] = tested on: MDA-MB-435
# [25] = tested on: MDA-N
# [26] = tested on: MOLT-4 leukemia
# [27] = tested on: NCI-H226 lung
# [28] = tested on: NCI-H23 lung
# [29] = tested on: NCI-H460 lung
# [30] = tested on: NCI/ADR-RES ovarian
# [31] = tested on: OVCAR-3 ovarian
# [32] = tested on: OVCAR-4 ovarian
# [33] = tested on: OVCAR-5 ovarian
# [34] = tested on: OVCAR-8 ovarian
# [35] = tested on: PC-3 prostate
# [36] = tested on: RPMI-8226 leukemia
# [37] = tested on: RXF 393 renal
# [38] = tested on: SF-295 CNS
# [39] = tested on: SF-539 CNS
# [40] = tested on: SK-MEL-2 melanoma
# [41] = tested on: SK-MEL-28 melanoma
# [42] = tested on: SK-MEL-5 melanoma
# [43] = tested on: SK-OV-3 ovarian
# [44] = tested on: SN12C renal
# [45] = tested on: SNB-19 CNS
# [46] = tested on: SNB-75 CNS
# [47] = tested on: SR leukemia
# [48] = tested on: SW-620 colon
# [49] = tested on: T-47D breast
# [50] = tested on: TK-10 renal
# [51] = tested on: U251 CNS
# [52] = tested on: UACC-257 melanoma
# [53] = tested on: UACC-62 melanoma
# [54] = tested on: UO-31 renal
# [55] = tested on: HCC-2998 colon
# [56] = tested on: HS 578T breast
# [57] = tested on: MALME-3M melanoma
# [58] = tested on: NCI-H522 lung
# [59] = tested on: SF-268 CNS
structure (smiles),measurement,setting,value
O=C(O)C(CCc1ccccc1)N1C(=O)c2ccccc2C1=O (stereo not drawn),TGI,[1],> 100 µM
same,TGI,[2],> 100 µM
same,TGI,[3],> 100 µM
same,TGI,[4],> 100 µM
same,TGI,[5],> 100 µM
same,TGI,[6],> 100 µM
same,TGI,[7],> 100 µM
same,TGI,[8],> 100 µM
same,TGI,[9],> 100 µM
same,TGI,[10],> 100 µM
same,TGI,[11],> 100 µM
same,TGI,[12],> 100 µM
same,TGI,[13],> 100 µM
same,TGI,[14],> 100 µM
same,TGI,[15],> 100 µM
same,TGI,[16],> 100 µM
same,TGI,[17],> 100 µM
same,TGI,[18],> 100 µM
same,TGI,[19],> 100 µM
same,TGI,[20],> 100 µM
same,TGI,[21],> 100 µM
same,TGI,[22],> 100 µM
same,TGI,[23],> 100 µM
same,TGI,[24],> 100 µM
same,TGI,[25],> 100 µM
same,TGI,[26],> 100 µM
same,TGI,[27],> 100 µM
same,TGI,[28],> 100 µM
same,TGI,[29],> 100 µM
same,TGI,[30],> 100 µM
same,TGI,[31],> 100 µM
same,TGI,[32],> 100 µM
same,TGI,[33],> 100 µM
same,TGI,[34],> 100 µM
same,TGI,[35],> 100 µM
same,TGI,[36],> 100 µM
same,TGI,[37],> 100 µM
same,TGI,[38],> 100 µM
same,TGI,[39],> 100 µM
same,TGI,[40],> 100 µM
same,TGI,[41],> 100 µM
same,TGI,[42],> 100 µM
same,TGI,[43],> 100 µM
same,TGI,[44],> 100 µM
same,TGI,[45],> 100 µM
same,TGI,[46],> 100 µM
same,TGI,[47],> 100 µM
same,TGI,[48],> 100 µM
same,TGI,[49],> 100 µM
same,TGI,[50],> 100 µM
same,TGI,[51],> 100 µM
same,TGI,[52],> 100 µM
same,TGI,[53],> 100 µM
same,TGI,[54],> 100 µM
CC(NC(=O)OC(C)(C)C)C(=O)NC1CCCC1 (stereo not drawn),TGI,[1],> 100 µM
same,TGI,[2],> 100 µM
same,TGI,[3],> 100 µM
same,TGI,[4],> 100 µM
same,TGI,[6],> 100 µM
same,TGI,[7],> 100 µM
same,TGI,[8],> 100 µM
same,TGI,[9],> 100 µM
same,TGI,[10],> 100 µM
same,TGI,[55],> 100 µM
same,TGI,[11],> 100 µM
same,TGI,[13],> 100 µM
same,TGI,[15],> 100 µM
same,TGI,[56],> 100 µM
same,TGI,[16],> 100 µM
same,TGI,[17],> 100 µM
same,TGI,[18],> 100 µM
same,TGI,[19],> 100 µM
same,TGI,[20],> 100 µM
same,TGI,[21],> 100 µM
same,TGI,[57],> 100 µM
same,TGI,[22],> 100 µM
same,TGI,[24],> 100 µM
same,TGI,[25],> 100 µM
same,TGI,[26],> 100 µM
same,TGI,[27],> 100 µM
same,TGI,[28],> 100 µM
same,TGI,[29],> 100 µM
same,TGI,[58],> 100 µM
same,TGI,[30],> 100 µM
same,TGI,[31],> 100 µM
same,TGI,[32],> 100 µM
same,TGI,[33],> 100 µM
same,TGI,[34],> 100 µM
same,TGI,[35],> 100 µM
same,TGI,[36],> 100 µM
same,TGI,[37],> 100 µM
same,TGI,[59],> 100 µM
same,TGI,[38],> 100 µM
same,TGI,[41],> 100 µM
same,TGI,[42],> 100 µM
same,TGI,[43],> 100 µM
same,TGI,[44],> 100 µM
same,TGI,[45],> 100 µM
same,TGI,[46],> 100 µM
same,TGI,[47],> 100 µM
same,TGI,[48],> 100 µM
same,TGI,[50],> 100 µM
same,TGI,[52],> 100 µM
same,TGI,[54],> 100 µM
O=C(CCC1CCCCC1)NCc1ccc(C(=O)O)cc1,TGI,[1],> 100 µM
same,TGI,[2],> 100 µM
same,TGI,[3],> 100 µM
same,TGI,[4],> 100 µM
same,TGI,[5],> 100 µM
same,TGI,[6],> 100 µM
same,TGI,[7],> 100 µM
same,TGI,[8],> 100 µM
same,TGI,[9],> 100 µM
same,TGI,[10],> 100 µM
same,TGI,[55],> 100 µM
same,TGI,[11],> 100 µM
same,TGI,[12],> 100 µM
same,TGI,[14],> 100 µM
same,TGI,[15],> 100 µM
same,TGI,[16],> 100 µM
same,TGI,[17],> 100 µM
same,TGI,[18],> 100 µM
same,TGI,[19],> 100 µM
same,TGI,[20],> 100 µM
same,TGI,[21],> 100 µM
same,TGI,[57],> 100 µM
same,TGI,[22],> 100 µM
same,TGI,[23],> 100 µM
same,TGI,[24],> 100 µM
same,TGI,[25],> 100 µM
same,TGI,[26],> 100 µM
same,TGI,[27],> 100 µM
same,TGI,[28],> 100 µM
same,TGI,[29],> 100 µM
same,TGI,[58],> 100 µM
same,TGI,[30],> 100 µM
same,TGI,[31],> 100 µM
same,TGI,[32],> 100 µM
same,TGI,[33],> 100 µM
same,TGI,[34],> 100 µM
same,TGI,[35],> 100 µM
same,TGI,[36],> 100 µM
same,TGI,[37],> 100 µM
same,TGI,[59],> 100 µM
same,TGI,[38],> 100 µM
same,TGI,[39],> 100 µM
same,TGI,[40],> 100 µM
same,TGI,[41],> 100 µM
same,TGI,[42],> 100 µM
same,TGI,[43],> 100 µM
same,TGI,[44],> 100 µM
same,TGI,[45],> 100 µM
same,TGI,[46],> 100 µM
same,TGI,[47],> 100 µM
same,TGI,[48],> 100 µM
same,TGI,[49],> 100 µM
same,TGI,[50],> 100 µM
same,TGI,[51],> 100 µM
same,TGI,[52],> 100 µM
same,TGI,[53],> 100 µM
same,TGI,[54],> 100 µM
CO/C(=N\N=C\c1ccccc1F)c1ccncc1,TGI,[1],> 10 µM
same,TGI,[3],> 10 µM
same,TGI,[4],> 10 µM
same,TGI,[5],> 10 µM
same,TGI,[6],> 10 µM
same,TGI,[7],> 10 µM
same,TGI,[8],> 10 µM
same,TGI,[9],> 10 µM
same,TGI,[10],> 10 µM
same,TGI,[55],> 10 µM
same,TGI,[11],> 10 µM
same,TGI,[12],> 10 µM
same,TGI,[13],> 10 µM
same,TGI,[14],> 10 µM
same,TGI,[15],> 10 µM
same,TGI,[16],> 10 µM
same,TGI,[18],> 10 µM
same,TGI,[19],> 10 µM
same,TGI,[20],> 10 µM
same,TGI,[21],> 10 µM
same,TGI,[57],> 10 µM
same,TGI,[22],> 10 µM
same,TGI,[23],> 10 µM
same,TGI,[24],> 10 µM
same,TGI,[25],> 10 µM
same,TGI,[26],> 10 µM
same,TGI,[27],> 10 µM
same,TGI,[28],> 10 µM
same,TGI,[29],> 10 µM
same,TGI,[58],> 10 µM
same,TGI,[30],> 10 µM
same,TGI,[31],> 10 µM
same,TGI,[32],> 10 µM
same,TGI,[33],> 10 µM
same,TGI,[34],> 10 µM
same,TGI,[35],> 10 µM
same,TGI,[36],> 10 µM
same,TGI,[37],> 10 µM
same,TGI,[59],> 10 µM
same,TGI,[38],> 10 µM
same,TGI,[40],> 10 µM
same,TGI,[44],> 10 µM
same,TGI,[45],> 10 µM
same,TGI,[47],> 10 µM
same,TGI,[48],> 10 µM
same,TGI,[49],> 10 µM
same,TGI,[50],> 10 µM
same,TGI,[51],> 10 µM
same,TGI,[52],> 10 µM
same,TGI,[54],> 10 µM
C=C1CC[C@]2(C)[C@H](CC[C@@]34C[C@@H](CC[C@H]32)[C@@H](C(=O)O)C4)C1(C)C,TGI,[1],> 12.5 µM
same,TGI,[2],9.3 µM
same,TGI,[3],> 12.5 µM
same,TGI,[4],> 12.5 µM
same,TGI,[5],> 12.5 µM
same,TGI,[6],> 12.5 µM
same,TGI,[7],> 12.5 µM
same,TGI,[8],> 12.5 µM
same,TGI,[10],> 12.5 µM
same,TGI,[11],> 12.5 µM
same,TGI,[12],> 12.5 µM
same,TGI,[13],> 12.5 µM
same,TGI,[14],> 12.5 µM
same,TGI,[15],> 12.5 µM
same,TGI,[56],> 12.5 µM
same,TGI,[16],> 12.5 µM
same,TGI,[17],> 12.5 µM
same,TGI,[18],> 12.5 µM
same,TGI,[19],> 12.5 µM
same,TGI,[20],> 12.5 µM
same,TGI,[21],> 12.5 µM
same,TGI,[57],> 12.5 µM
same,TGI,[22],> 12.5 µM
same,TGI,[23],> 12.5 µM
same,TGI,[24],> 12.5 µM
same,TGI,[25],> 12.5 µM
same,TGI,[26],> 12.5 µM
same,TGI,[27],> 12.5 µM
same,TGI,[28],> 12.5 µM
same,TGI,[29],> 12.5 µM
same,TGI,[30],> 12.5 µM
same,TGI,[31],> 12.5 µM
same,TGI,[32],> 12.5 µM
same,TGI,[33],> 12.5 µM
same,TGI,[34],> 12.5 µM
same,TGI,[35],> 12.5 µM
same,TGI,[37],> 12.5 µM
same,TGI,[38],> 12.5 µM
same,TGI,[39],> 12.5 µM
same,TGI,[40],> 12.5 µM
same,TGI,[41],> 12.5 µM
same,TGI,[42],> 12.5 µM
same,TGI,[43],> 12.5 µM
same,TGI,[44],> 12.5 µM
same,TGI,[45],> 12.5 µM
same,TGI,[47],> 12.5 µM
same,TGI,[48],> 12.5 µM
same,TGI,[50],> 12.5 µM
same,TGI,[51],> 12.5 µM
same,TGI,[52],> 12.5 µM
same,TGI,[53],> 12.5 µM
same,TGI,[54],> 12.5 µM

# Reference: PubChem BioAssay (NCI)
